The results in this text go back to PMC10610214 (Pharmaceuticals, 2023).

One data set concerns BV2 cells. Put plainly: LPS-induced ROS production in BV2 cells. To be noted: 4h 7.5, 15, 30 μM. Type of data set: cell-based. As to the method: Intracellular ROS levels was detected by the ROS assay kit (Biyuntian Biotechnology, Hang Zhou, China). […] The control group involved culturing the BV2 microglia cells in normal culture media without any treatment. Then, the cells were washed with PBS (pH 7.2) and incubated with DCFH-DA at 37 °C for 20 min. Finally, cells were washed with DMEM and the fluorescence intensity was observed under confocal laser scanning microscope.

The test system of data set [1] is scopolamine-induced AD mice. Put plainly: Morris water maze, scopolamine-induced AD mouse model. Type of data set: in vivo. As to the method: Mice were reared in a temperature and humidity controlled environment with free access to food and water, with self-adaptive rearing for 4 days.
According to behavioral experiments, 30 mice were randomly divided into 5 groups. […] On day 7, scopolamine hydrobromide was injected intraperitoneally into the of the mouse to establish an AD model. The control group were only injected normal saline. After 30 min, the bodyweight changes in mice during the administration period were recorded.
The MWM is a white circular pool (150 cm in diameter, 60 cm in height; no features on the inner surface) with a water height of 46 cm and a white platform (10 cm in diameter) submerged 1 cm below the water surface. White titanium dioxide (0.25 g/L) was added to make the water turbid to make the platform invisible, and the platform was fixed in the third quadrant of the circular pool (four quadrants in total). Training was performed by allowing mice to stay for 15 s after reaching the platform. If the mice successfully found the platform within 60 s, they were allowed to stay on the platform for 15 s; otherwise, they were brought to the platform and stayed for 15 s. The training was performed four times a day for a total of 4 days of training. Except for the control group, animals were intraperitoneally injected with scopolamine 90 min before the test to induce cognitive deficits mimicking. On day 5, a probe trial was conducted with the platform removed. Mice were placed in the quadrant opposite the target for 60 s, and their swim path was recorded to evaluate memory retention. Performance measures included latency to reach the platform location and time spent in each quadrant.

The target in a further data set is Aβ1-42 (Homo sapiens, UniProt P05067). In words: TEM of Aβ1-42 self-aggregation. To be noted: 4h 100 μM, Aβ1-42 5 μM, 48 h.
Sequence of Aβ1-42 (P05067 672-713 limits assumed): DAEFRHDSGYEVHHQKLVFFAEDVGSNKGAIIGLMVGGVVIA
A further data set concerns NO in BV2 cells. Put plainly: NO production in LPS-stimulated BV2 cells (Griess). Type of data set: cell-based. The following applies: Mus musculus, BV-2, 24 h, read-out: NO inhibition IC50. As to the method:
The cytotoxicity of compounds on BV2 cells were evaluated by MTT assay and similar to those described in Section 2.5. The NO concentrations in medium were determined using Griess Reagent assay (Beyotime) in accordance with a previously reported method. Nitrite is reduced to nitrogen oxide using Griess Reagent I. Nitrogen oxide then reacts with Griess Reagent II forming a stable product that can be detected by its absorbance at […]. The two-step assay is simple, fast, and can detect nitrite levels as low as 1 nmol/well. BV2 cells were seeded into a 48-well plate at a density of 6.0 × 10^4 cells per well. After the cells were incubated overnight, the old medium was discarded. Then, the cells were pretreated with various concentrations (10, 5, 1, 0.5, and 0.1 μM) of compounds for 1 h and then co-incubated with LPS (1 μg/mL, 30 μL/well) for 24 h. After 24 h, the cell supernatant (50 μL/well) was placed into a new 96-well plate for experiment. […] The absorbance at […] was measured by a microplate reader.
A general note: Griess reagent forms a coloured azo dye with nitrite.

In a further data set the test system is HepG2 cells. In words: Hepatotoxicity in HepG2 cells (MTT). Type of data set: cell-based. The following applies: 10, 30 and 50 μM. As to the method: The hepatotoxicity of compound 4h in normal AML-12 hepatocytes and HepG2 liver cancer cells was examined by MTT method. AML-12 cells and HepG2 cells were seeded into 96-well plates at a density of 5.0 × 10^3 cells per well, respectively. After the cells were incubated overnight, the old medium was discarded. The cells were incubated for 48 h with fresh medium containing various concentrations of the test compound. After 48 h of incubation, 20 μL of MTT (5 mg/mL) was added to each well and incubate for an additional 4 h. Formazan was dissolved with DMSO (150 μL). […]

Another data set can be described thus: in vitro. Type of data set: in vitro ADME, SD rats. The following applies: pH 7.4. As to the method:
The incubation was terminated at different time points by adding 0.5 mL of ice-cold CH3CN. A parallel incubation was performed in the absence of a NADPH-regenerating system with microsomes as the negative control, and the reactions were terminated after the corresponding time incubation. After centrifugation with 12,500 rpm at 4 °C for 10 min, the supernatant was directly analyzed by the HPLC UV systems (Agilent HPLC 1200 instrument). Three independent experiments were performed in triplicate.

For another data set, the system named is iNOS. Put plainly: iNOS expression in LPS-stimulated BV2 cells (Western blot). Type of data set: cell-based. To be noted: 1, 2, 4 μM. As to the method: BV2 cells were seeded into a 6-well plate at a density of 3.0 × 10^5 cells per well. After incubation overnight, the old medium was discarded. Then, the cells were pretreated with various concentrations (1, 2, and 4 μM) of 4h for 1 h and then co-incubated with LPS (1 μg/mL) for 24 h. After incubation was completed, the cells were washed twice with PBS, and 300 μL of cell lysis buffer (RIRA lysis buffer, phosphatase inhibitor, protease inhibitor, and PMSF) was added to each well. The cells were then incubated on ice for 30 min and centrifuged at 12,000 rpm at 4 °C for 30 min to collect the supernatant. The protein content in the supernatant was detected using the BCA protein detection kit (Beyotime, Shanghai, China). Total proteins were separated by 10% SDS-PAGE and then transferred from the gel to a PVDF membrane (Sigma-Aldrich, Shanghai, China). The membranes were blocked in TBST solution containing 5% skimmed milk for 2 h. Next, the membranes were washed three times (TBST) and incubated with primary antibody dilution (Cell Signaling Technologies, Boston, MA, USA) overnight at 4 °C. Then, they were washed another three times (TBST), incubated with the secondary antibody at room temperature for 90 min, and then washed three times with TBST. The blots were visualized by a chemiluminescence imager (Tanon 5200, Shanghai, China).
A general note: In western blotting, separated proteins are transferred to a membrane and probed.

For the next data set, the system named is H2O2-induced PC12 cells. In words: Neuroprotection against H2O2-induced PC12 cell injury (MTT). Type of data set: cell-based. The following applies: H2O2 250 μM, mean ± SEM.
The mark [2] stands for this setting: Morris water maze probe trial, day 5.

Protocol for Aβ1-42: Transmission Electron Microscope (TEM) studies were performed as previously described. […] After 2 days, a copper mesh was used to adsorb the samples, then stained with phosphotungstic acid, and the Aβ1-42 self-aggregation by TEM was observed (Talos L1200C, Thermo Fisher Scientific, Waltham, MA, USA).

Regarding `O=C1c2cc(NS(=O)(=O)c3ccccc3F)ccc2-n2c1nc1ccccc1c2=O` [4h], in the data set on BV2 cells, the “Intracellular ROS levels in BV2 cells” value is “significantly reduced intracellular ROS levels”. The Bodyweight of mice result in data set [1] (10 and 30 mg/kg, gavage, 7 days) is “did not cause any abnormal fluctuations in the bodyweight of mice”. Moreover, in data set [1] (setting [2]), the “Dwell time in the target quadrant” value is “markedly higher in the 30 mg/kg dose group than those in the model and 10 mg/kg dose groups”. In addition, the “Number of virtual platform crossings” value in data set [1] (setting [2]) was “markedly higher in the 30 mg/kg dose group than those in the model and 10 mg/kg dose groups”. The Escape latency entry in data set [1] (Morris water maze, 10 and 30 mg/kg gavage, training days) is given as “decreased in a dose-dependent manner”. The “Morphology of Aβ1-42 aggregates (TEM)” value on Aβ1-42 was “aggregation of Aβ1-42 samples was remarkably reduced”. Also, the IC50 – broadly, the concentration at which inhibition is half-maximal – in the data set with NO in BV2 cells came out at 0.62 ± 0.07 µM. The “Hepatotoxicity in HepG2 cells” value in the data set on HepG2 cells is given as “had no toxicity”. Further, the K in “in vitro” (SD, rat, 100 μM) is 0.00574 ± 0.00037 min⁻¹. Moreover, the half-life (as a rule, how long it takes for the measured level to halve) at 100 μM in “in vitro” (SD rat liver microsomes) is 1.8 ± 0.0817 h. The iNOS expression entry with iNOS is “significantly decreased the expression of COX-2 and iNOS”. In addition, the “H2O2-Induced PC12 Cell Viability (% of Control)” value is recorded as 61.66 ± 1.3 % of Control with H2O2-induced PC12 cells (compound 10 μM) and 71.31 ± 1.9 % of Control with H2O2-induced PC12 cells (compound 30 μM).
